From patent publication US11713344B2 (DONG-A ST CO., LTD., priority 2017, dated 2023)

Legend:
Human glucagon receptors = Human glucagon receptors (Homo sapiens, UniProt P47871); assay: Glucagon receptor activation assay (CRE-luciferase reporter, CHO-K1)
Method: Then, the resulting increased luciferase activity was evaluated as a measurement of the effect on each receptor activation.
After 3 hours of transfection, medium was exchanged to Alpha Minimal Essential Medium (α-MEM) comprising 10% fetal bovine serum (FBS). Next day, the medium was exchanged to α-MEM comprising the analog of the present invention and 0.1% bovine serum albumin (BSA). After 6 hours, dual luciferase assay reagent was added in the same amount as the medium in which the cells were submerged, and firefly luciferase and Renilla luciferase activities were continuously measured. Firefly luciferase activity values were corrected against Renilla luciferase activity to yield transfection efficiency.

Human GLP-1 receptors = Human GLP-1 receptors (Homo sapiens, UniProt P43220); assay: GLP-1 receptor activation assay (CRE-luciferase reporter, CHO-K1)
Sequence of Human GLP-1 receptors (P43220 24-463): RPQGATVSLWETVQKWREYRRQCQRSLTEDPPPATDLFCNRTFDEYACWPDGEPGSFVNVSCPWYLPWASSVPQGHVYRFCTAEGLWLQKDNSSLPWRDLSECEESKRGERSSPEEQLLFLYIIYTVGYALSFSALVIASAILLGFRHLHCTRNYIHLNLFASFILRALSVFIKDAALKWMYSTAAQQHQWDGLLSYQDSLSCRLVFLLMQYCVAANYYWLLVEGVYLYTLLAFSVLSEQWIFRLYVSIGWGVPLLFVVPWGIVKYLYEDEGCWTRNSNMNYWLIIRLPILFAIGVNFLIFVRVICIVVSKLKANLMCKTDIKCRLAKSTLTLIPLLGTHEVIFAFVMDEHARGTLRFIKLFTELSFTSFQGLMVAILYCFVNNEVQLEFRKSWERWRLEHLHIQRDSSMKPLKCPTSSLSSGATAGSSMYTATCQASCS

Sequence of Human glucagon receptors (P47871 26-477): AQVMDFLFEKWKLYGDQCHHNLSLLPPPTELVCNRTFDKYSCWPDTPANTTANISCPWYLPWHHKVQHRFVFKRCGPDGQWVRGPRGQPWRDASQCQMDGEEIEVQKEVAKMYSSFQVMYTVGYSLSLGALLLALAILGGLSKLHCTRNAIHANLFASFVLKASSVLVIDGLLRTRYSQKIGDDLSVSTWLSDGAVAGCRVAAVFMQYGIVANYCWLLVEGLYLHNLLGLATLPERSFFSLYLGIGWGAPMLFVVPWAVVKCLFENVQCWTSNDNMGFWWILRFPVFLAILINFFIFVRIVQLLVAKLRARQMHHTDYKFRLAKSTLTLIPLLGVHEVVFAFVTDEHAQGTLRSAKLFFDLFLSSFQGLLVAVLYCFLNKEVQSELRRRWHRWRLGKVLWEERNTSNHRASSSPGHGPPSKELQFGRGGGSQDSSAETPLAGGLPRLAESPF

Row | SMILES | EC50 (Human glucagon receptors) [nM] | EC50 (Human GLP-1 receptors) [nM]
1 | CCCCCCCCCCCCCCCCCC(=O)N[C@@H](CCC(=O)NCC(=O)N[C@@H](CO)C(=O)NCC(=O)N[C@@H](CO)C(=O)NCC(=O)NCC(=O)NCCCC[C@H](NC(=O)[C@H](CC(=O)O)NC(=O)[C@H](CO)NC(=O)[C@@H](NC(=O)[C@H](Cc1ccccc1)NC(=O)[C@@H](NC(=O)CNC(=O)[C@H](CCC(N)=O)NC(=O)C(C)(C)NC(=O)[C@@H](N)Cc1c[nH]cn1)[C@@H](C)O)[C@@H](C)O)C(=O)N[C@@H](CO)C(=O)N[C@@H](CCCCN)C(=O)N[C@@H](Cc1ccc(O)cc1)C(=O)N[C@@H](CC(C)C)C(=O)N[C@@H](CC(=O)O)C(=O)NC(C)(C)C(=O)N[C@@H](CCCNC(=N)N)C(=O)N[C@@H](CCCNC(=N)N)C(=O)N[C@@H](C)C(=O)N[C@@H](CCC(N)=O)C(=O)N[C@@H](CC(=O)O)C(=O)N[C@@H](Cc1ccccc1)C(=O)N[C@H](C(=O)N[C@@H](CCC(N)=O)C(=O)N[C@@H](Cc1c[nH]c2ccccc12)C(=O)N[C@@H](CC(C)C)C(=O)N[C@@H](CCSC)C(=O)N[C@@H](CC(N)=O)C(=O)N[C@H](C(=O)N[C@@H](CCCCN)C(=O)O)[C@@H](C)O)C(C)C)C(=O)O [Compound 11] | 0.01 to 0.1 | < 0.01
2 | CSCC[C@H](NC(=O)[C@H](CC(C)C)NC(=O)[C@H](Cc1c[nH]c2ccccc12)NC(=O)[C@H](CCC(N)=O)NC(=O)[C@@H](NC(=O)[C@H](Cc1ccccc1)NC(=O)[C@H](CC(=O)O)NC(=O)[C@H](CCC(N)=O)NC(=O)[C@H](C)NC(=O)[C@H](CCCNC(=N)N)NC(=O)[C@H](CCCNC(=N)N)NC(=O)C(C)(C)NC(=O)[C@H](CC(=O)O)NC(=O)[C@H](CC(C)C)NC(=O)[C@H](Cc1ccc(O)cc1)NC(=O)[C@H](CCCCN)NC(=O)[C@H](CO)NC(=O)[C@H](CCCCNC(=O)COCCOCCNC(=O)COCCOCCNC(=O)CC[C@H](NC(=O)CCCCCCCCCCCCCCCCC(N)=O)C(=O)O)NC(=O)[C@H](CC(=O)O)NC(=O)[C@H](CO)NC(=O)[C@@H](NC(=O)[C@H](Cc1ccccc1)NC(=O)[C@@H](NC(=O)CNC(=O)[C@H](CCC(N)=O)NC(=O)C(C)(C)NC(=O)[C@@H](N)Cc1c[nH]cn1)[C@@H](C)O)[C@@H](C)O)C(C)C)C(=O)N[C@@H](CC(N)=O)C(=O)N[C@H](C(=O)N[C@@H](CCCCN)C(=O)O)[C@@H](C)O [Compound 13] | 0.01 to 0.1 | 0.01 to 0.1
3 | CCCCCCCCCCCCCCCCCC(=O)N[C@@H](CCC(=O)NCCOCCOCC(=O)NCCOCCOCC(=O)NCCOCCOCC(=O)NCCCC[C@H](NC(=O)[C@H](CC(=O)O)NC(=O)[C@H](CO)NC(=O)[C@@H](NC(=O)[C@H](Cc1ccccc1)NC(=O)[C@@H](NC(=O)CNC(=O)[C@H](CCC(N)=O)NC(=O)C(C)(C)NC(=O)[C@@H](N)Cc1c[nH]cn1)[C@@H](C)O)[C@@H](C)O)C(=O)N[C@@H](CO)C(=O)N[C@@H](CCCCN)C(=O)N[C@@H](Cc1ccc(O)cc1)C(=O)N[C@@H](CC(C)C)C(=O)N[C@@H](CC(=O)O)C(=O)NC(C)(C)C(=O)N[C@@H](CCCNC(=N)N)C(=O)N[C@@H](CCCNC(=N)N)C(=O)N[C@@H](C)C(=O)N[C@@H](CCC(N)=O)C(=O)N[C@@H](CC(=O)O)C(=O)N[C@@H](Cc1ccccc1)C(=O)N[C@H](C(=O)N[C@@H](CCC(N)=O)C(=O)N[C@@H](Cc1c[nH]c2ccccc12)C(=O)N[C@@H](CC(C)C)C(=O)N[C@@H](CCSC)C(=O)N[C@@H](CC(N)=O)C(=O)N[C@H](C(=O)N[C@@H](CCCCN)C(=O)O)[C@@H](C)O)C(C)C)C(=O)O [Compound 10] | < 0.01 | < 0.01

Now from value to molecule:

Row | EC50 (Human glucagon receptors) [nM] | EC50 (Human GLP-1 receptors) [nM] | SMILES
4 | < 0.01 | < 0.01 | CCCCCCCCCCCCCCCCCC(=O)N[C@@H](CCC(=O)NCCOCCOCC(=O)NCCOCCOCC(=O)NCCCC[C@H](NC(=O)[C@H](CC(=O)O)NC(=O)[C@H](CO)NC(=O)[C@@H](NC(=O)[C@H](Cc1ccccc1)NC(=O)[C@@H](NC(=O)CNC(=O)[C@H](CCC(N)=O)NC(=O)C(C)(C)NC(=O)[C@@H](N)Cc1c[nH]cn1)[C@@H](C)O)[C@@H](C)O)C(=O)N[C@@H](CO)C(=O)N[C@@H](CCCCN)C(=O)N[C@@H](Cc1ccc(O)cc1)C(=O)N[C@@H](CC(C)C)C(=O)N[C@@H](CC(=O)O)C(=O)N[C@H]1CCC(=O)NC2CCC(CC2)C(=O)NCCCC[C@@H](C(=O)N[C@@H](CC(=O)O)C(=O)N[C@@H](Cc2ccccc2)C(=O)N[C@H](C(=O)N[C@@H](CCC(N)=O)C(=O)N[C@@H](Cc2c[nH]c3ccccc23)C(=O)N[C@@H](CC(C)C)C(=O)N[C@@H](CCSC)C(=O)N[C@@H](CC(N)=O)C(=O)N[C@H](C(=O)N[C@@H](CCCCN)C(=O)O)[C@@H](C)O)C(C)C)NC(=O)[C@H](C)NC(=O)[C@H](CCCNC(=N)N)NC(=O)[C@H](CCCNC(=N)N)NC1=O)C(=O)O [Compound 33, H-HAibQGTFTSDZSKYLDERRAKDFVQWLMNTK-OH]
5 | < 0.01 | < 0.01 | CCCCCCCCCCCCCCCCCC(=O)N[C@@H](CCC(=O)NCCOCCOCC(=O)NCCOCCOCC(=O)NCCCC[C@H](NC(=O)[C@H](CC(=O)O)NC(=O)[C@H](CO)NC(=O)[C@@H](NC(=O)[C@H](Cc1ccccc1)NC(=O)[C@@H](NC(=O)CNC(=O)[C@H](CCC(N)=O)NC(=O)C(C)(C)NC(=O)[C@@H](N)Cc1c[nH]cn1)[C@@H](C)O)[C@@H](C)O)C(=O)N[C@@H](CO)C(=O)N[C@@H](CCCCN)C(=O)N[C@@H](Cc1ccc(O)cc1)C(=O)N[C@@H](CC(C)C)C(=O)N[C@@H](CC(=O)O)C(=O)N[C@H]1CCC(=O)NCC(=O)NCCCC[C@@H](C(=O)N[C@@H](CC(=O)O)C(=O)N[C@@H](Cc2ccccc2)C(=O)N[C@H](C(=O)N[C@@H](CCC(N)=O)C(=O)N[C@@H](Cc2c[nH]c3ccccc23)C(=O)N[C@@H](CC(C)C)C(=O)N[C@@H](CCSC)C(=O)N[C@@H](CC(N)=O)C(=O)N[C@H](C(=O)N[C@@H](CCCCN)C(=O)O)[C@@H](C)O)C(C)C)NC(=O)[C@H](C)NC(=O)[C@H](CCCNC(=N)N)NC(=O)[C@H](CCCNC(=N)N)NC1=O)C(=O)O [Compound 35, H-HAibQGTFTSDZSKYLDERRAKDFVQWLMNTK-OH]
6 | < 0.01 | < 0.01 | CCCCCCCCCCCCCCCCCC(=O)N[C@@H](CCC(=O)NCCOCCOCC(=O)NCCOCCOCC(=O)NCCCC[C@H](NC(=O)[C@H](CC(=O)O)NC(=O)[C@H](CO)NC(=O)[C@@H](NC(=O)[C@H](Cc1ccccc1)NC(=O)[C@@H](NC(=O)CNC(=O)[C@H](CCC(N)=O)NC(=O)C(C)(C)NC(=O)[C@@H](N)Cc1c[nH]cn1)[C@@H](C)O)[C@@H](C)O)C(=O)N[C@@H](CO)C(=O)N[C@@H](CCCCN)C(=O)N[C@@H](Cc1ccc(O)cc1)C(=O)N[C@@H](CC(C)C)C(=O)N[C@@H](CC(=O)O)C(=O)NC(C)(C)C(=O)N[C@@H](CCCNC(=N)N)C(=O)N[C@@H](CCCNC(=N)N)C(=O)N[C@@H](C)C(=O)N[C@@H](CCC(N)=O)C(=O)N[C@@H](CC(=O)O)C(=O)N[C@@H](Cc1ccccc1)C(=O)N[C@H](C(=O)N[C@@H](CCC(N)=O)C(=O)N[C@@H](Cc1c[nH]c2ccccc12)C(=O)N[C@@H](CC(C)C)C(=O)N[C@@H](CCSC)C(=O)N[C@@H](CC(N)=O)C(=O)N[C@H](C(=O)N[C@@H](CCCCN)C(=O)N[C@@H](CCCNC(=N)N)C(=O)N[C@@H](CC(N)=O)C(=O)N[C@@H](CCCNC(=N)N)C(=O)N[C@@H](CC(N)=O)C(=O)N[C@@H](CC(N)=O)C(=O)N[C@H](C(=O)N[C@@H](C)C(=O)O)[C@@H](C)CC)[C@@H](C)O)C(C)C)C(=O)O [Compound 7]
